Measurements taken from publication PMC7827406, “Structure–Activity Relationship (SAR) Study of Spautin-1 to Entail the Discovery of Novel NEK4 Inhibitors” (International Journal of Molecular Sciences, 2021).
Like-named read-outs stand apart in the source and are kept apart here.

Tests used:
Experiment in all cases: biochemical
Parameters in all cases: Eurofins KinaseProfiler full panel at Km ATP, residual kinase activity (%) relative to DMSO
[1] = molecular target: T1, PI3 Kinase (p110a/p65a)(m) (Mus musculus, UniProt P42337)
T1 construct: gene Pik3ca; with p65a
T1 sequence (P42337 whole entry): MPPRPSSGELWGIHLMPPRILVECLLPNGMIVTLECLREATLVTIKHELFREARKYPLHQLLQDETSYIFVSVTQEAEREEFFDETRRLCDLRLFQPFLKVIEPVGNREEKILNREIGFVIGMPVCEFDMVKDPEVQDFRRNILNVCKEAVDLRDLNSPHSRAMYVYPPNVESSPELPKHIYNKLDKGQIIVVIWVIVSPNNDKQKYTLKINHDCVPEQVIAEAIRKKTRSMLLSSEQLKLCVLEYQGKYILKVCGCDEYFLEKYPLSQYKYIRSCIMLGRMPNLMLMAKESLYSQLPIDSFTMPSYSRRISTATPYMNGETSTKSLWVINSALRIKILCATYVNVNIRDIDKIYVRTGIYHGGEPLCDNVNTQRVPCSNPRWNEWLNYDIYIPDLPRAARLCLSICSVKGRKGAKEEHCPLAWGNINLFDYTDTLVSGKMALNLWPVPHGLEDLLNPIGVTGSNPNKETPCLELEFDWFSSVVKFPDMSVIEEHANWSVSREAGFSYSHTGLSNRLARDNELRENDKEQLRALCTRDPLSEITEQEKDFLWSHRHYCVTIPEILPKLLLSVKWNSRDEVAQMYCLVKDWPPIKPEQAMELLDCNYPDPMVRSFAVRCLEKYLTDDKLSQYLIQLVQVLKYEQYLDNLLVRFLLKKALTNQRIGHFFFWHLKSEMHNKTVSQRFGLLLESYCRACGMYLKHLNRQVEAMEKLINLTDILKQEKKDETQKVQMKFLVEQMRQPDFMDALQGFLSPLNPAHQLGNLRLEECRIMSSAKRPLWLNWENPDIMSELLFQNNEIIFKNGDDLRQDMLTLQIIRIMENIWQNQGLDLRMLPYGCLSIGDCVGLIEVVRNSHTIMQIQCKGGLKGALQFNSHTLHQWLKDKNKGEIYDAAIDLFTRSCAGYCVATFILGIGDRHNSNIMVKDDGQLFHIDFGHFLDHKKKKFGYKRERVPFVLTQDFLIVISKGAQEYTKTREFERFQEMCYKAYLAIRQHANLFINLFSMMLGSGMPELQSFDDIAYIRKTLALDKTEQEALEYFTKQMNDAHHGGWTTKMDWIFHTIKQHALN
T1 sequence (P26450 whole entry partner): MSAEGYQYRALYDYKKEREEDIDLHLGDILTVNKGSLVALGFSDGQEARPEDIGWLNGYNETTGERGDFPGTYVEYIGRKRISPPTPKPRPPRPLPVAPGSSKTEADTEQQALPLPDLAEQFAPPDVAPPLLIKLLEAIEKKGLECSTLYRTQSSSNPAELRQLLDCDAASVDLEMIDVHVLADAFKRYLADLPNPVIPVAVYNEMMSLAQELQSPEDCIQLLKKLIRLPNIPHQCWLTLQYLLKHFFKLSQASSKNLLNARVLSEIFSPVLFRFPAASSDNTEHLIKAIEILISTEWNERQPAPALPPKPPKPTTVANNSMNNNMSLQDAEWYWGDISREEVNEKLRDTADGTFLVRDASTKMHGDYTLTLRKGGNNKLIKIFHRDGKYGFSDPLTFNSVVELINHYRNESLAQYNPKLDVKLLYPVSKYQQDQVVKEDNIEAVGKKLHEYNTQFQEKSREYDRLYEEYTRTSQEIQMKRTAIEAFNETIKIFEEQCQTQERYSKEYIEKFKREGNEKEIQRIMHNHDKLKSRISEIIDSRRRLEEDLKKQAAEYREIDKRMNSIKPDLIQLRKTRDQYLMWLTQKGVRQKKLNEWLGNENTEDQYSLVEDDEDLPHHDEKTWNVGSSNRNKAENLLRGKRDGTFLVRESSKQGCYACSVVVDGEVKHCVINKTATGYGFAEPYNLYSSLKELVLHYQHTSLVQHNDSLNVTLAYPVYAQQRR
Outline: (§1)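 Two 10 µM single-concentration screens were run: a competition-binding screen, in which DNA-tagged kinase bound to immobilized ligands was quantified by qPCR, and a radiometric activity panel at Km ATP. Each is expressed as residual kinase activity (%).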

[2] = molecular target: T2, CaMKIIγ(h) (Homo sapiens, UniProt Q13555)
T2 construct: gene CAMK2G
T2 sequence (Q13555 whole entry): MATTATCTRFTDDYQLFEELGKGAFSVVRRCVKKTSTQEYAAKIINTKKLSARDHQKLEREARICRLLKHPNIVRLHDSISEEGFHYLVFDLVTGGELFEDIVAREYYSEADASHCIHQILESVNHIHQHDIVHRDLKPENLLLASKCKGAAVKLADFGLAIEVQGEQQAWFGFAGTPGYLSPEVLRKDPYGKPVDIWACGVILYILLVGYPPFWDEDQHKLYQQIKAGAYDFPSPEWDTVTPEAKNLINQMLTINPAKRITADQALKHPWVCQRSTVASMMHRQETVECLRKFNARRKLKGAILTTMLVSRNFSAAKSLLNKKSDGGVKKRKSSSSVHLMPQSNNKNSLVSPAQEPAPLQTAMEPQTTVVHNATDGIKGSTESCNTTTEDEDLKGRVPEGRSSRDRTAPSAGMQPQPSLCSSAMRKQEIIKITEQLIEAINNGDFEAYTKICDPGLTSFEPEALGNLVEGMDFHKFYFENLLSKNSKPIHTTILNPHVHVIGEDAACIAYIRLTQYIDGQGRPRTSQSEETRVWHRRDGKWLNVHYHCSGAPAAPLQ
Outline: as §1

[3] = molecular target: T3, EphB4(h) (Homo sapiens, UniProt P54760)
T3 sequence (P54760 1-987): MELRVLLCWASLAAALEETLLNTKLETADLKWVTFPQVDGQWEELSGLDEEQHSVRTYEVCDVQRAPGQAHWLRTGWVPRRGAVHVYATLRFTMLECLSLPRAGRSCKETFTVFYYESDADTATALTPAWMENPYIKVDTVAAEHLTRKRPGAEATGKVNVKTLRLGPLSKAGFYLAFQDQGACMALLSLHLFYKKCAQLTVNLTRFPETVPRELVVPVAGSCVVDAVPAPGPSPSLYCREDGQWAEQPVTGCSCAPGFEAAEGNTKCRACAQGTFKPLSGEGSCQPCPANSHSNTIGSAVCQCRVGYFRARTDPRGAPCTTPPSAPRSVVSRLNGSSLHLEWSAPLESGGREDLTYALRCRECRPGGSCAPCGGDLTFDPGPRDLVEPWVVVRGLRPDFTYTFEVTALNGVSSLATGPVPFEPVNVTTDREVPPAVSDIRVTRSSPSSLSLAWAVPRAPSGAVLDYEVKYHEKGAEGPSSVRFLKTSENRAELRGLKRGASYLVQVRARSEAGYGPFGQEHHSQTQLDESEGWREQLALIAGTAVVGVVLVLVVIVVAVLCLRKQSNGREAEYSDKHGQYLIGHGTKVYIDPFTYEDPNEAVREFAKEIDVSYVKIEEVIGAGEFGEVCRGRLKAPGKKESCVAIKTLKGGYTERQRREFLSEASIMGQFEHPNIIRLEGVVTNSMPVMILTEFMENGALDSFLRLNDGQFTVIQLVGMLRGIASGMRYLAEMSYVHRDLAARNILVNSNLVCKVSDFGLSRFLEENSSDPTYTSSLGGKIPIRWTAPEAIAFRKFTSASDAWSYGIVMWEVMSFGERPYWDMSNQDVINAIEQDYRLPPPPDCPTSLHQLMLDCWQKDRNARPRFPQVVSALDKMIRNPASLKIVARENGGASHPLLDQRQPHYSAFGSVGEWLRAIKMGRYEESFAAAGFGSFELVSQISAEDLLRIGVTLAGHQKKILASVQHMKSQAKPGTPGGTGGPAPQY
Outline: as §1

[4] = molecular target: T4, Rsk4(h) (Homo sapiens, UniProt Q9UK32)
T4 construct: gene RPS6KA6
T4 sequence (Q9UK32 whole entry): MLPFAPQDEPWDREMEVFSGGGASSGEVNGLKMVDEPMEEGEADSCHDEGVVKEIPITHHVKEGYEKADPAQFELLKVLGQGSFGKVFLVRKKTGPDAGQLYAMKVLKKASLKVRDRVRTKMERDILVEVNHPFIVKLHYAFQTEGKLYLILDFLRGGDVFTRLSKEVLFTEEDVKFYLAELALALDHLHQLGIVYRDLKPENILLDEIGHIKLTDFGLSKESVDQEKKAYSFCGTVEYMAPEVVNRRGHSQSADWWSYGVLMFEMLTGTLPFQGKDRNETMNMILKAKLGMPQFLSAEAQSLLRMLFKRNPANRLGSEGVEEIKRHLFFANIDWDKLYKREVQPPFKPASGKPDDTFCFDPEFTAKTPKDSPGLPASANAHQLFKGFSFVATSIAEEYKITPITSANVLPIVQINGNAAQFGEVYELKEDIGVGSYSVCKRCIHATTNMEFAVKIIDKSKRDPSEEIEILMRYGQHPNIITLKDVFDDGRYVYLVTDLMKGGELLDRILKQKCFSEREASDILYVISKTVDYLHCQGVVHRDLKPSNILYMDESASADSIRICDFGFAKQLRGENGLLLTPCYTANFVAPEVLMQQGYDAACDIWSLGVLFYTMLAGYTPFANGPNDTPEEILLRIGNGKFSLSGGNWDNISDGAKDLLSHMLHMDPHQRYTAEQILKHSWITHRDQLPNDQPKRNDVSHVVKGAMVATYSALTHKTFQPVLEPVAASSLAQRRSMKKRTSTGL
Outline: as §1

[5] = molecular target: Fyn(h) (Homo sapiens, UniProt P06241)
Outline: as §1

[6] = molecular target: T5, DYRK2(h) (Homo sapiens, UniProt Q92630)
T5 sequence (Q92630 1-601): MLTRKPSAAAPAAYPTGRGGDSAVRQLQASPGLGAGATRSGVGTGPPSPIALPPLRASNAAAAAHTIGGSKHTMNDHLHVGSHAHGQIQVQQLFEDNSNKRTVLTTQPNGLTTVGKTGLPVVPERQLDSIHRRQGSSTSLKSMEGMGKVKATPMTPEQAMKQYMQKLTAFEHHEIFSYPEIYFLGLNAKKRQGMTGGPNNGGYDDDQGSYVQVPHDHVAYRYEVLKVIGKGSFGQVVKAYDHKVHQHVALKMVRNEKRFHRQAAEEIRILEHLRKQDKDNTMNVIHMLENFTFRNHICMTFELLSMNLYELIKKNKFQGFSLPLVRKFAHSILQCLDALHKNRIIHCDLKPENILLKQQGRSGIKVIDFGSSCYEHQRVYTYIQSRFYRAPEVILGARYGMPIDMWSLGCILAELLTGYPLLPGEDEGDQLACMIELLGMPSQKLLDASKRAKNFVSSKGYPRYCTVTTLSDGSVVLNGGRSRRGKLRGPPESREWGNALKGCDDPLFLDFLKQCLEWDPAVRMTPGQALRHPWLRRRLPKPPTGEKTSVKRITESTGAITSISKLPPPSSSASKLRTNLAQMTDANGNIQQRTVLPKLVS
Outline: as §1

[7] = molecular target: EphA7(h) (Homo sapiens, UniProt Q15375)
Sequence of EphA7(h) (Q15375 whole entry): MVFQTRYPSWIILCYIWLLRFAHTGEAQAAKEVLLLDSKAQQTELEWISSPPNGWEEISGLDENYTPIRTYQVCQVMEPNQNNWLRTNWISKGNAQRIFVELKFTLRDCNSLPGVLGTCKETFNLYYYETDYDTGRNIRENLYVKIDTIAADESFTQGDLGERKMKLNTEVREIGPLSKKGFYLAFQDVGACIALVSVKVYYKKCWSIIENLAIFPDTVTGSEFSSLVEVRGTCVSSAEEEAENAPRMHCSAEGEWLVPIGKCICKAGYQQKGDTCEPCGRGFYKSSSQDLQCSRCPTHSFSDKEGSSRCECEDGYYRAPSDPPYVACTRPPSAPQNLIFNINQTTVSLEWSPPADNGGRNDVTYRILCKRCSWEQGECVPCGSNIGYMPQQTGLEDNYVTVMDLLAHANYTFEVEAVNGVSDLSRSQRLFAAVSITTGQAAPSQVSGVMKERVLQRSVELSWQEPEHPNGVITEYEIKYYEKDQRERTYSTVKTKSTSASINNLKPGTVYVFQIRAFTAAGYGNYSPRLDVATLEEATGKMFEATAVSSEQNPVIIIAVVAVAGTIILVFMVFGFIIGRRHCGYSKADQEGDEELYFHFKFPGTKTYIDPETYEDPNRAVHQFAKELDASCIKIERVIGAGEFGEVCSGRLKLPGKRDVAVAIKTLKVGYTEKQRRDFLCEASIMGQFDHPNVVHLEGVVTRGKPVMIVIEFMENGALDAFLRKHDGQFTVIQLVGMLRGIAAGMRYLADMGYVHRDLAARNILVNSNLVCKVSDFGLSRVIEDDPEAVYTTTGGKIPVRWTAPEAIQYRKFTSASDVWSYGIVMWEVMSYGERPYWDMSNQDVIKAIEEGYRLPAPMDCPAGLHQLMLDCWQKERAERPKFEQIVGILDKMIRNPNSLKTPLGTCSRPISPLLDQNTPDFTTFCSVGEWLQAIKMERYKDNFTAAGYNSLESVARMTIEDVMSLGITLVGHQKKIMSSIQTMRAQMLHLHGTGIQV
Outline: as §1

[8] = molecular target: BTK(R28H)(h) (Homo sapiens, UniProt Q06187, R28H)
Sequence of BTK(R28H)(h) (Q06187 whole entry R28H): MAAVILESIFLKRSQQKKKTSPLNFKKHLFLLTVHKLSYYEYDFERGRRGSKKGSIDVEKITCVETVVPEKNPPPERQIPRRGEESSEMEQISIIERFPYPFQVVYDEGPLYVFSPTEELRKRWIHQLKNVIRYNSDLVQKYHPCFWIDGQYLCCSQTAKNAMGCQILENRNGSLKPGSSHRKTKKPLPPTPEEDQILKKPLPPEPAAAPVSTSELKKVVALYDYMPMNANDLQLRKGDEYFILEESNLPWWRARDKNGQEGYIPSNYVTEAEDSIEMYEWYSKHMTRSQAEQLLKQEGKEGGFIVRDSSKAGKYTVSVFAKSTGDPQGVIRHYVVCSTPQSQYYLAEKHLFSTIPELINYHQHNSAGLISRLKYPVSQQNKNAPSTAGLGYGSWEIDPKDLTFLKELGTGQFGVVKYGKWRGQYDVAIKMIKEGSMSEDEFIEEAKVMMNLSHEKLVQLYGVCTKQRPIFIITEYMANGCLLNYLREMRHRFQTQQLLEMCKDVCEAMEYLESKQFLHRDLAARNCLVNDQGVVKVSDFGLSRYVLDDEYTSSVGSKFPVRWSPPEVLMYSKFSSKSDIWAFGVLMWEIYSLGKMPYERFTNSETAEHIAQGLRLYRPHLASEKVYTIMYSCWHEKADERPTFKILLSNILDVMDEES
Outline: as §1

[9] = molecular target: T6, IRR(h) (Homo sapiens, UniProt P14616)
T6 construct: gene INSRR
Outline: as §1

[10] = read-out: Residual activity (%) Spautin-1 5aa
[11] = read-out: Residual activity (%) 5as
[12] = read-out: Residual activity (%) 5at
[13] = read-out: Residual activity (%) 5ay

With Fc1ccc(CNc2ncnc3ccc(F)cc23)cc1 [5aa, 6-Fluoro-N-(4-fluorobenzyl)-4-Quinazolinamine] the remaining activity at 10 µM [1, 10] was 98%, the remaining activity at 10 µM [2, 10] was 83% and the remaining activity at 10 µM [3, 10] was 68%. For the same compound, the remaining activity at 10 µM [4, 10] was 117%, the remaining activity at 10 µM [5, 10] was 63% and the remaining activity at 10 µM [6, 10] was 99%. For the same compound, the remaining activity at 10 µM [7, 10] was 100%, the remaining activity at 10 µM [8, 10] was 88% and the remaining activity at 10 µM [9, 10] was 93%.
Fc1ccc(CCNc2ncnc3ccc(F)cc23)cc1 [5as, 6-Fluoro-N-[2-(4-Fluorophenyl)Ethyl]-4-Quinazolinamine] gave a remaining activity at 10 µM [1, 11] of 86%, a remaining activity at 10 µM [2, 11] of 74% and a remaining activity at 10 µM [3, 11] of 59%. For the same compound, the remaining activity at 10 µM [4, 11] was 81%, the remaining activity at 10 µM [5, 11] was 61% and the remaining activity at 10 µM [6, 11] was 100%. The remaining activity at 10 µM [7, 11] was 84%, the remaining activity at 10 µM [8, 11] was 103% and the remaining activity at 10 µM [9, 11] was 87%.
Work on Fc1ccc2ncnc(NCCc3ccc(Cl)cc3)c2c1 [5at, N-[2-(4-Chlorophenyl)Ethyl]-6-Fluoro-4-Quinazolinamine] yielded a remaining activity at 10 µM [1, 12] of 87%, a remaining activity at 10 µM [2, 12] of 75% and a remaining activity at 10 µM [3, 12] of 68%. For the same compound, the remaining activity at 10 µM [4, 12] was 92%, the remaining activity at 10 µM [5, 12] was 75% and the remaining activity at 10 µM [6, 12] was 103%. It also gave a remaining activity at 10 µM [7, 12] of 87%, a remaining activity at 10 µM [8, 12] of 101% and a remaining activity at 10 µM [9, 12] of 79%.
Compound COc1ccc2ncnc(Nc3cccc(F)c3)c2c1 [5ay, N-(3-Fluorophenyl)-6-Methoxy-4-Quinazolinamine] has a remaining activity at 10 µM [1, 13] of 101%, a remaining activity at 10 µM [2, 13] of 41% and a remaining activity at 10 µM [3, 13] of 63%. It also gave a remaining activity at 10 µM [4, 13] of 100%, a remaining activity at 10 µM [5, 13] of 66% and a remaining activity at 10 µM [6, 13] of 64%. It also gave a remaining activity at 10 µM [7, 13] of 90%, a remaining activity at 10 µM [8, 13] of 103% and a remaining activity at 10 µM [9, 13] of 99%.
